Measured values taken from article PMC9945734 (BMC Medicine, 2023).

Legend:
[1] = test system: DU 145-KQ cells; assay: Clone formation assay; format: cell-based, human; details: 0-20 μM, 8 days
Method: (§1) PC-3-KQ and DU 145-KQ cells were seeded onto 6-well plates at 1 × 10^3 cells/well. After incubation for 24 h, PC-3-KQ cells were treated with NTZ at 0, 1.25, 2.5, and 5 μM, while DU 145-KQ cells were treated with NTZ at 0, 5, 10, and 20 μM for 8 days. The drug-containing medium was replaced every 2 days. On the 8th day, cells were rinsed with cold PBS, fixed with 4% paraformaldehyde for 10 min, stained with purple crystal for 10 min, and photographed, and the images were analyzed using the Image J software.

[2] = test system: PC-3-KQ cells; assay: Clone formation assay; format: cell-based, human; details: 0-5 μM, 8 days
Method: as §1

[3] = test system: RAW264.7 cells; assay: Osteoclast differentiation with conditioned medium from NTZ-treated PC-3-KQ cells; format: cell-based; details: CM from PC-3-KQ cells treated at 2.5 or 5 μM for 36 h; RANKL 10 ng/mL; 7 days
Method: In the second in vitro assay, we used conditioned medium (CM) from NTZ-treated Ac-KLF5-expressing cells. PC-3-KQ cells were seeded in 6-well plates at 1 × 10^5 cells per well and cultured overnight. […] Subsequently, the conditioned media (CM) was collected from each group, centrifugated, filtered, aliquoted, and stored at -80°C for further use or used immediately in the co-cultured experiments. […] RAW264.7 cells in 96-well plates with 24-h culture were incubated with the CM-containing medium for 7 days, with the medium replaced every 2 days. The TRAP staining assay was performed to determine the number of differentiated osteoclasts according to the manufacturer's instructions.

[4] = test system: MMP9; assay: MMP9 expression by western blotting and qRT-PCR; format: cell-based, human; details: KLF5^K369Q-expressing cells (PC-3-KQ)
Method: (§2) Total RNA was extracted from cells using the Eastep Super total RNA extraction kit (Cat #: LS1040, Promega, Shanghai, China) and quantified using the NanoDrop One (Thermo Fisher Scientific, Madison, USA). Single-strand cDNA was synthesized from 1 μg of total RNA using the HiScript III All-in-one RT SuperMix kit (Cat #: R333-01, Vazyme, Nanjing, China). For qRT-PCR, the cDNA template was mixed with the SYBR Green reagent in enzyme-free water, and the Qtower3 touch system (Analytik Jena, Jena, Germany) was used for PCR with the following program: initial denaturation at 95°C for 5 min, 40 cycles of 95°C for 30 s, 60°C for 30 s, and 72 °C for 30 s, and a final melting for 15 s. GAPDH was used as an internal control. […].
(§3) Cells in 6-well plates were washed with cold PBS and collected in a lysis buffer containing phosphatase and protease inhibitors (Cat #: P1045, Beyotime) to extract proteins. After centrifugation for 10 min at 4°C in a refrigerated centrifuge, the supernatant was collected and mixed with the 4× loading buffer, boiled in a metal heat bath at 100°C for 10 min, and then subjected to 10% SDS-PAGE. Proteins were transferred onto an activated PVDF membrane (0.45 μm pore-size, Cat #: IPVH00010, Millipore, Carrigtwohill, Ireland). […]

[5] = test system: MYBL2; assay: MYBL2 expression by qRT-PCR and western blotting; format: cell-based, human; details: PC-3 and DU 145 cells expressing KLF5^K369Q; dose- or time-dependent
Method: as §2, §3

[6] = test system: MYBL2; assay: MYBL2 immunohistochemical staining of bone tissues; format: in vivo, Balb/c nude mice; details: treatment in mice
Method: Immunohistochemical staining was conducted following established procedures. Briefly, 4-μm sections of bone tissues were deparaffinized in xylene and rehydrated in gradient ethanol. The endogenous antigen was retrieved by incubating slides in 10 mM sodium citrate buffer (Cat #: C1010, Solarbio, Beijing, China) overnight in an oven at 65°C. After antigen retrieving, tissue sections were incubated with 3% hydrogen peroxide at room temperature for 10 min to block the endogenous […] activity. They were then incubated in a blocking solution (0.1% albumin bovine V mixed with 10% goat serum) for 40 min, and a solution containing a primary antibody (MMP9, 1:1000, Cat #: ab76003, Abcam, Cambridge, UK; MYBL2, 1:100, Cat #: ab76009, Abcam) for 1.5 h. After rinsing with PBS for 3 times, slides were incubated with the secondary antibody solution for 15 min and then with the DAB solution using the MaxVision II HRP kit (Cat #: KIT-5920, MXB Biotechnologies, Fuzhou, China). Nuclei were counterstained with hematoxylin for 2 min. Slides were then dehydrated with gradient ethanol (75–100%) and xylene and mounted with coverslips using the quick-hardening mounting medium. All slides were scanned using an Aperio VERSA 8 Scanner System (Leica, Wetzlar, Germany) and analyzed using the Image J software (Image J 1.48v, NIH, Bethesda, MD, USA).

For CC(=O)Oc1ccccc1C(=O)Nc1ncc([N+](=O)[O-])s1 [Nitazoxanide], the colony number [1] was “reduced colony number”, the colony number [2] was “reduced colony number” and the “number of TRAP^+ multinucleated cells” value [3] was “significantly reduced”. The “MMP9 expression (protein and mRNA)” value [4] was “decreased MMP9 expression in a dose-dependent manner”, the “expression of MYBL2 (mRNA and protein)” value [5] was “reduced the expression of MYBL2” and the “MYBL2 protein expression in bone tissues (IHC)” value [6] was “significantly decreased MYBL2 protein expression”.
